Laboratory results: a melting point compilation (Tetko et al.; mined from patent text by program, amines drawn as free bases though some values may be those of a salt)

SMILES	melting point [°C]
O=C(c1ccccc1)c1ccc2c(c1)CC(C(=O)NCCO)C2 (configuration not stated)	106 to 107
CCC1Cc2cc(NC(C)=O)ccc2C1=O (configuration not stated)	154 to 155
CC1CCCN(C2c3cc4nonc4cc3OC(C)(C)C2O)C1=O (configuration not stated)	146 to 149
CCOC(=O)COc1ccc(CCCOC(=O)NCC2CC2)c(Oc2ncc(C(F)(F)F)cc2Cl)c1	113
O=C(NCc1ncc(C(F)(F)F)cc1Cl)c1c(Cl)nc2c(c1Cl)CCCC2	48 to 50
O=C(Nc1ccc(Cl)c(Cl)c1)N(O)Cc1ccccc1	157
O=C(O)c1cnc(-c2ccc(NC(=O)C(Cl)Cl)cc2)nc1O	> 310
OCCCCCCOc1ccc(-c2ccccc2)cc1	92 to 94
CSc1ccc(NC(=O)C2(C)CC2)cc1C(F)(F)F	97 to 98
S=C(Nc1ccc(Cl)cn1)N[C@@H]1C[C@@H]1c1ccccc1	190 to 191
O=Cc1ccc(C2=NOC(c3cc(Cl)cc(Cl)c3)(C(F)(F)F)C2)cc1Cl (configuration not stated)	129 to 130
CC12CCC3c4c(O)cc(O)cc4CCC3C1CCC2=O (configuration not stated)	245 to 247
COc1ccc(N2CCN(c3c(C)c(C)c4c(c3C)C(=CCc3ccccc3)C(C)(C)O4)CC2)cc1	166 to 167
CN(C)C=Nc1nc(=O)n(S(=O)(=O)c2ccccc2)cc1F	203 to 204
C=CC(=O)Nc1ccc2[nH]nnc2c1	248 to 253
COc1nc2ccccc2cc1NC(=O)N1CCN(c2ccccc2F)CC1	156 to 158
CC(C)(C)N1CCN(Cc2ccc([N+](=O)[O-])cc2)S1(=O)=O	113
COc1cc2[nH]c(C)c(CCN3CCN(NC(=O)Nc4ccccc4)CC3)c2cc1OC	170 to 173
O=C(C=Cc1cccc(-c2ccccc2)c1)Nc1ccc(CN2CCCCC2)cc1	159 to 160
CC(C)C(C#N)Nc1ccc(C(F)(F)F)cc1Cl (configuration not stated)	63.2 to 64.8
COc1nc2ccccc2nc1NC(=O)N1CCN(c2ccc(C(C)=O)cc2)CC1	198 to 200
COc1ccc(CNC(Nc2ccccc2)=C(C#N)C(=O)OC(C)(C)C)cc1	158 to 159
COC(=O)C(Cc1cc(OC)cc(OC)c1)c1ccc(Oc2ccc(C=C3SC(=O)NC3=O)cc2)cc1 (configuration not stated)	104 to 106
N#CC(c1ccccc1)(c1ccccc1)C1CCCN(CCc2ccc(Cl)c(Cl)c2)C1 (configuration not stated)	139 to 142

SMILES	melting point [°C]
CCOC(=O)c1c(CN(CC)CC)nc2sc3c(c2c1-c1ccc(OC)c(OC)c1)CCN(C(=O)Nc1ccccc1)C3	154 to 155
OCc1cccc(Nc2ncc3c(n2)-c2ccccc2[C@H](c2ccccc2F)C3)c1	158 to 159
CCCc1nc2c(C(F)(F)F)cccc2c(O)c1C(=O)O	148
O=C(NC(=S)Nc1ccccc1-c1ccccc1F)c1ccccc1	110 to 111
CC(OCc1cc2nc(C(F)(F)F)ccc2n1S(=O)(=O)c1ccc2ncsc2c1)C(=O)O (configuration not stated)	124
Cc1cc(Cl)cc(C(=O)NCC2(C)CC2)c1NC(=O)c1cc(C(F)(F)F)nn1-c1ncccc1Cl	210
CCC12CCC3=C(CCc4cc(O)ccc43)C1CCC2O (configuration not stated)	234 to 238
Cc1cc(O)cc2c1N(C)C1N(C)CCC21C (configuration not stated)	146 to 148
c1ccc(-c2cc(CCC3CCNC3)c3ccccc3n2)cc1 (configuration not stated)	140
CCCCCC(CNC(=O)Nc1cc(C(N)=O)ccc1C(C)(C)C)c1ccc(OC)cc1OC (configuration not stated)	223 to 224
CCOC(=O)C(=O)Nc1ccc(C(N)=O)c(C(N)=O)c1	229 to 230
CN1CCc2c(Br)sc(Br)c2C(c2ccccc2)C1 (configuration not stated)	83
CN1CCN(c2cc(Cl)cc3c2c(=O)n(Cc2ccccc2O)c(=O)n3Cc2ccccc2)CC1	130 to 132
CCCn1nc(-c2ccc(O)c(F)c2)c2cccc(Cl)c21	134 to 135
CCOC(=O)c1nc(C=Cc2ccc(Cl)cc2)oc1C	105 to 106
O=S1(=O)NCCNc2ccc(Oc3ccccc3)cc21	146 to 149
CC#Cc1cn(C2OC(CO)C(O)C2O)c(=O)nc1N (configuration not stated)	241 to 243
CN(C)CCCNCC(O)C(O)C(O)C(O)CO (configuration not stated)	107 to 108
CCOP(=S)(OCC)ON=C1C=CC(=C(C#N)c2ccccc2)C=C1	66 to 82
COc1cc(NC(=O)NC(=O)c2c(F)cccc2F)ccc1OC(F)(F)C(F)(F)c1ccc(Cl)cc1	133 to 134
Cc1ccc(NC(=O)c2cccc(C(F)(F)F)c2)cc1-c1ccc2cnncc2c1	97 to 100
NC(=O)c1cccc(CCCBr)c1	109
C[C@H]1OC(=O)[C@@H](N)[C@@H]1C(=O)O	196 to 200
CCCCC(=O)NCCCSCCO	7

SMILES	melting point [°C]
COc1ccc(-c2coc3ccc(C(=O)NN)cc23)cc1	184 to 185
O=C(NCc1cccs1)c1ccccc1C(c1ccc(O)cc1)c1ccc(O)cc1	109 to 111
CC1(C)CC(=O)C(F)C(C)(C)C1 (configuration not stated)	27 to 31
Clc1cc(Cl)cc(N=Cc2ccccc2)c1	52 to 53
O=C1CN=C2C(=O)CC=CC2=N1	208 to 211
FC(F)(F)Oc1ccc(-c2cc(-n3ccc(C(F)(F)F)n3)c3ccccc3n2)cc1	108 to 110
CN1C(=O)CC[C@]2(C)c3ccc(-c4ccc(C(F)(F)F)cc4[N+](=O)[O-])cc3CC[C@@H]12	55 to 57
CON=C1CCC(N(C)C(=O)c2ccc3nonc3c2)CC1 (configuration not stated)	167 to 168
O=C(/C=C/c1ccccc1)OCCOC(=O)NC1(C(=O)O)CC1	169 to 172
CCCCn1c(=O)c2c(nc(C)n2S(=O)(=O)c2ccc(C)cc2)n(CCCC)c1=O	111 to 113
Cc1c(C)c2c(c(C)c1N)C(O)(c1ccc3ccccc3c1)C(C)(C)O2 (configuration not stated)	121 to 122
O=C(O)c1ccc(F)c(Nc2ncccc2-c2ccncn2)c1	95
CC1(CSc2ccccc2)COC2(CCCCCCCCCCC2)OO1 (configuration not stated)	89
COc1cc2ncnc(N3CCN(C(=O)NCc4ccc(F)cc4)CC3)c2cc1OC	200 to 201
CN[C@H](Cc1ccc2ccccc2c1)C(=O)N1CCN(S(C)(=O)=O)C[C@H]1Cc1ccccc1	165 to 168
CC(C)c1ccc(OCC(=O)Cl)cc1	104 to 105
CCOC(=O)c1ccc(NC(=O)NCCN2CCN=C2c2ccncc2)cc1	120
CC(=O)OCc1cccc(Nc2nccc(-c3cnn(C(C)=O)c3-c3ccccc3)n2)c1	133 to 134
CC(C)n1nc(-c2sc(NC(=O)n3c4ccccc4c4ccccc43)nc2-c2ccccc2)ccc1=O	241 to 242
O=C1Nc2cc(C(F)(F)F)ccc2C1c1ncnc2c1cnn2C1CCCCC1 (configuration not stated)	277 to 280
CCCCc1ncc(/C(C)=C(\Cc2ccccc2)C(=O)O)n1Cc1ccccc1Cl	206 to 207
CCCOC12CCC(=O)C3(C)Oc4c(O)ccc5c4C31CCN(C)C2C5 (configuration not stated)	193 to 195
O=[N+]([O-])c1ccc(NS(=O)(=O)c2cc(Cl)c(Cl)cc2Cl)c(Cl)c1	177 to 179
O=[N+]([O-])c1ccnc(N2CCNCC2)c1	92 to 93
